This is an account of results in US20250101436A1, “APTAMERS AND SMALL MOLECULE LIGANDS” (MeiraGTx UK II Limited, priority 2021, published 2025).

For the first data set, the system named is N5-12G6 riboswitch. Put plainly: Firefly luciferase assay, N5-12G6 riboswitch in HEK293 cells. Particulars: 12G6 riboswitch, luciferase, HEK293, 2 μM.
Description: Transfection: 3.5×10^4 human embryonic kidney (HEK) 293 cells were plated in a 96-well flat bottom plate the day before transfection. Plasmid DNA (500 ng) was added to a tube or a 96-well U-bottom plate. Separately, TransIT-293 reagent (Mirus; 1.4 L) was added to 50 μL Optimum I media (Life Technologies) and allowed to sit for 5 minutes at room temperature (RT). Then, 50 μL of this diluted transfection reagent was added to the DNA, mixed, and incubated at RT for 20 min. Finally, 7 μL of this solution was added to a well of cells in the 96-well plate. Four hours after transfection, medium containing transfection solution was replaced by medium with either TPP or fursultiamine as aptamer ligands.
Firefly luciferase assay of cultured cells: Twenty-four hours after media change, plates were removed from the incubator, and equilibrated to RT for several minutes on a lab bench, then aspirated. Glo-lysis buffer (Promega, 100 μL, RT) was added, and the plates allowed to remain at RT for at least 5 minutes. Then, the well contents were mixed by 50 μL trituration, and 20 μL of each sample was mixed with 20 μL of bright-glo reagent (Promega) that had been diluted to 10% in glo-lysis buffer. 96 wells were spaced on an opaque white 384-well plate. Following a 5 min incubation at RT, luminescence was measured using a Tecan machine with 500 ms read time. The luciferase activity was expressed as mean arbitrary light units (ALU)±S.D., and fold induction was calculated as the quotient of the luciferase activity obtained from cells with TPP or analog compound treatment divided by the luciferase activity obtained from cells without TPP or analog compound treatment.
`Fc1cc(CNc2cncc(Cl)c2N2CCNCC2)cc2nccnc12` [compound 053, 5-chloro-N-((8-fluoroquinoxalin-6-yl)methyl)-4-(piperazin-1-yl)pyridin-3-amine]: the “Fold induction 2 μM (HEK)” value stood at 16.8 fold.

The data set is the same for the next values; noted with them: Homo sapiens, HEK293, read-out: Fold induction 2 μM (HEK), 12G6 riboswitch, luciferase, HEK293, 2 μM.
In the case of `c1cc(OC2CCNCC2)c(NCc2ccc3nccnc3c2)cn1` [compound 045, 4-(piperidin-4-yloxy)-N-(quinoxalin-6-ylmethyl)pyridin-3-amine], the fold induction at 2 µM is 12.

`c1cc(N2CC3(CNC3)C2)c(NCc2ccc3nccnc3c2)cn1` [compound 046, N-(quinoxalin-6-ylmethyl)-4-(2,6-diazaspiro[3.3]heptan-2-yl)pyridin-3-amine]: the fold induction at 2 µM amounted to 1.6.

As to `CN(C)CCOc1ccncc1NCc1ccc2nccnc2c1` [compound 047, 4-(2-(dimethylamino)ethoxy)-N-(quinoxalin-6-ylmethyl)pyridin-3-amine], the fold induction at 2 µM worked out at 2.7.

With `N#Cc1ccc(N2CCNCC2)c(NCc2ccc3nccnc3c2)c1` [compound 048, 4-(piperazin-1-yl)-3-((quinoxalin-6-ylmethyl)amino)benzonitrile], the fold induction at 2 µM came to 1.

As for `Clc1cc(CNc2cnccc2N2CCNCC2)cc2nccnc12` [compound 049, N-((8-chloroquinoxalin-6-yl)methyl)-4-(piperazin-1-yl)pyridin-3-amine], the fold induction at 2 µM worked out at 5.7.

Regarding `Fc1cc2nccnc2cc1CNc1cnccc1N1CCNCC1` [compound 050, N-((7-fluoroquinoxalin-6-yl)methyl)-4-(piperazin-1-yl)pyridin-3-amine], the fold induction at 2 µM was 23.5.

For `Fc1nccc(N2CCNCC2)c1NCc1ccc2nccnc2c1` [compound 051, 2-fluoro-4-(piperazin-1-yl)-N-(quinoxalin-6-ylmethyl)pyridin-3-amine], the fold induction at 2 µM is 2.7.

`Fc1cc2nccnc2cc1CNc1cncc(Cl)c1N1CCNCC1` [compound 052, 5-chloro-N-((7-fluoroquinoxalin-6-yl)methyl)-4-(piperazin-1-yl)pyridin-3-amine]: the fold induction at 2 µM is 18.9.

For `Clc1cc2nccnc2cc1CNc1cncc(Cl)c1N1CCNCC1` [compound 054, 5-chloro-N-((7-chloroquinoxalin-6-yl)methyl)-4-(piperazin-1-yl)pyridin-3-amine], the fold induction at 2 µM came out at 10.6.

For the molecule `Clc1cncc(NCc2cc(Cl)c3nccnc3c2)c1N1CCNCC1` [compound 055, 5-chloro-N-((8-chloroquinoxalin-6-yl)methyl)-4-(piperazin-1-yl)pyridin-3-amine], the fold induction at 2 µM came to 4.1.

As for `C[C@@H]1CN(c2c(Cl)cncc2NCc2ccc3nccnc3c2)CCN1` [compound 056, (R)-5-chloro-4-(3-methylpiperazin-1-yl)-N-(quinoxalin-6-ylmethyl)pyridin-3-amine], the fold induction at 2 µM was 12.9.

As to `C[C@H]1CN(c2ccncc2NCc2cc3nccnc3cc2Cl)CCN1` [compound 057, (S)—N-((7-chloroquinoxalin-6-yl)methyl)-4-(3-methylpiperazin-1-yl)pyridin-3-amine], the fold induction at 2 µM is 22.3.

Regarding `C[C@@H]1CN(c2ccncc2NCc2cc3nccnc3cc2Cl)CCN1` [compound 058, (R)—N-((7-chloroquinoxalin-6-yl)methyl)-4-(3-methylpiperazin-1-yl)pyridin-3-amine], the fold induction at 2 µM was found to be 6.1.

`C[C@H]1CN(c2ccncc2NCc2cc(F)c3nccnc3c2)CCN1` [compound 059, (S)—N-((8-fluoroquinoxalin-6-yl)methyl)-4-(3-methylpiperazin-1-yl)pyridin-3-amine]: the fold induction at 2 µM is 15.8.

`C[C@@H]1CN(c2ccncc2NCc2cc(F)c3nccnc3c2)CCN1` [compound 060, (R)—N-((8-fluoroquinoxalin-6-yl)methyl)-4-(3-methylpiperazin-1-yl)pyridin-3-amine]: the fold induction at 2 µM is 1.7.

On to `C[C@H]1CNCCN1c1c(Cl)cncc1NCc1ccc2nccnc2c1` [compound 061, (S)-5-chloro-4-(2-methylpiperazin-1-yl)-N-(quinoxalin-6-ylmethyl)pyridin-3-amine], for which the fold induction at 2 µM amounted to 6.

As for `C[C@@H]1CNCCN1c1ccncc1NCc1cc2nccnc2cc1Cl` [compound 062, (R)—N-((7-chloroquinoxalin-6-yl)methyl)-4-(2-methylpiperazin-1-yl)pyridin-3-amine], the fold induction at 2 µM was 8.

As to `C[C@H]1CNCCN1c1ccncc1NCc1cc2nccnc2cc1Cl` [compound 063, (S)—N-((7-chloroquinoxalin-6-yl)methyl)-4-(2-methylpiperazin-1-yl)pyridin-3-amine], the fold induction at 2 µM turned out to be 2.7.

Turning to `Clc1cc(CNc2cnccc2OC2CNC2)cc2nccnc12` [compound 064, 4-(azetidin-3-yloxy)-N-((8-chloroquinoxalin-6-yl)methyl)pyridin-3-amine], the fold induction at 2 µM was found to be 15.

Take `C[C@@H]1CNCCN1c1ccncc1NCc1cc(F)c2nccnc2c1` [compound 065, (R)—N-((8-fluoroquinoxalin-6-yl)methyl)-4-(2-methylpiperazin-1-yl)pyridin-3-amine]: the fold induction at 2 µM was found to be 21.7.

Turning to `C[C@@H]1CNCCN1c1ccncc1NCc1cc(Cl)c2nccnc2c1` [compound 066, (R)—N-((8-chloroquinoxalin-6-yl)methyl)-4-(2-methylpiperazin-1-yl)pyridin-3-amine], the fold induction at 2 µM amounted to 2.

For the molecule `Fc1c(CNc2cnccc2N2CCNCC2)ccc2nccnc12` [compound 067, N-((5-fluoroquinoxalin-6-yl)methyl)-4-(piperazin-1-yl)pyridin-3-amine], the fold induction at 2 µM stood at 3.4.

In the case of `Cc1cc(CNc2cnccc2N2CCNCC2)cc2nccnc12` [compound 068, N-((8-methylquinoxalin-6-yl)methyl)-4-(piperazin-1-yl)pyridin-3-amine], the fold induction at 2 µM amounted to 4.4.

For `Cc1cc2nccnc2cc1CNc1cnccc1N1CCNCC1` [compound 069, N-((7-methylquinoxalin-6-yl)methyl)-4-(piperazin-1-yl)pyridin-3-amine], the fold induction at 2 µM was 28.3.

Take `Cc1c(CNc2cnccc2N2CCNCC2)cc2nccnc2c1C` [compound 070, N-((7,8-dimethylquinoxalin-6-yl)methyl)-4-(piperazin-1-yl)pyridin-3-amine]: the fold induction at 2 µM turned out to be 2.9.

Take `COc1cc(CNc2cnccc2N2CCNCC2)cc2nccnc12` [compound 071, N-((8-methoxyquinoxalin-6-yl)methyl)-4-(piperazin-1-yl)pyridin-3-amine]: the fold induction at 2 µM was 6.1.

With `COc1cc2nccnc2cc1CNc1cnccc1N1CCNCC1` [compound 072, N-((7-methoxyquinoxalin-6-yl)methyl)-4-(piperazin-1-yl)pyridin-3-amine], the fold induction at 2 µM worked out at 19.6.

In the case of `Fc1cncc(NCc2ccc3nccnc3c2)c1N1CCNCC1` [compound 073, 5-fluoro-4-(piperazin-1-yl)-N-(quinoxalin-6-ylmethyl)pyridin-3-amine], the fold induction at 2 µM is 43.9.

Turning to `Brc1cncc(NCc2ccc3nccnc3c2)c1N1CCNCC1` [compound 074, 5-bromo-4-(piperazin-1-yl)-N-(quinoxalin-6-ylmethyl)pyridin-3-amine], the fold induction at 2 µM came to 48.6.

As for `COc1cncc(NCc2ccc3nccnc3c2)c1N1CCNCC1` [compound 075, 5-methoxy-4-(piperazin-1-yl)-N-(quinoxalin-6-ylmethyl)pyridin-3-amine], the fold induction at 2 µM turned out to be 18.6.

Still in this data set, the particulars now being: Homo sapiens, HEK293, read-out: Fold induction 3.3 μM (HEK), 12G6 riboswitch, luciferase, HEK293, 3.3 μM.
Take `C[C@H]1CNCCN1c1ccncc1NCc1ccc2nccnc2c1` [compound 041, (S)-4-(2-methylpiperazin-1-yl)-N-(quinoxalin-6-ylmethyl)pyridin-3-amine]: the fold induction at 3.3 µM is 5.

Turning to `C[C@H]1CN(c2ccncc2NCc2ccc3nccnc3c2)CCN1` [compound 042, (S)-4-(3-methylpiperazin-1-yl)-N-(quinoxalin-6-ylmethyl)pyridin-3-amine], the fold induction at 3.3 µM worked out at 29.

`C[C@@H]1CN(c2ccncc2NCc2ccc3nccnc3c2)CCN1` [compound 043, (R)-4-(3-methylpiperazin-1-yl)-N-(quinoxalin-6-ylmethyl)pyridin-3-amine]: the fold induction at 3.3 µM turned out to be 31.

For the molecule `c1cc(O[C@H]2CCNC2)c(NCc2ccc3nccnc3c2)cn1` [compound 044, (S)-4-(pyrrolidin-3-yloxy)-N-(quinoxalin-6-ylmethyl)pyridin-3-amine], the fold induction at 3.3 µM came to 22.

The data set is the same for the next values; noted with them: Homo sapiens, HEK293, read-out: Fold induction 25 μM (HEK), 12G6 riboswitch, luciferase, HEK293, 25 μM.
`CN(c1ccncc1NCc1ccc2nccnc2c1)C1CCNC1` (centres unmarked) [compound 035, N^4-methyl-N^4-(pyrrolidin-3-yl)-N^3-(quinoxalin-6-ylmethyl)pyridine-3,4-diamine]: the fold induction at 25 µM stood at 86.4.

In the case of `FC(F)(F)C1CN(c2ccncc2NCc2ccc3nccnc3c2)CCN1` (centres unmarked) [compound 036, N-(quinoxalin-6-ylmethyl)-4-(3-(trifluoromethyl)piperazin-1-yl)pyridin-3-amine], the fold induction at 25 µM amounted to 8.2.

For `FC(F)(F)C1CNCCN1c1ccncc1NCc1ccc2nccnc2c1` (centres unmarked) [compound 037, N-(quinoxalin-6-ylmethyl)-4-(2-(trifluoromethyl)piperazin-1-yl)pyridin-3-amine], the fold induction at 25 µM was 6.1.

Turning to `O=C1CN(c2ccncc2NCc2ccc3nccnc3c2)CCN1` [compound 038, 4-(3-((quinoxalin-6-ylmethyl)amino)pyridin-4-yl)piperazin-2-one], the fold induction at 25 µM was found to be 2.9.

As to `c1cc(N2CCOCC2)c(NCc2ccc3nccnc3c2)cn1` [compound 039, 4-morpholino-N-(quinoxalin-6-ylmethyl)pyridin-3-amine], the fold induction at 25 µM was found to be 6.

As for `c1cc(NCc2ccc3nccnc3c2)c(N2CCNCC2)cn1` [compound 040, 3-(piperazin-1-yl)-N-(quinoxalin-6-ylmethyl)pyridin-4-amine], the fold induction at 25 µM is 69.
